Assay results as given in PMC8150690, “Effects of Extraction Conditions on Banana Peel Polyphenol Oxidase Activity and Insights into Inactivation Kinetics Using Thermal and Cold Plasma Treatment” (Foods, 2021).
Each block holds one molecule with its values, some of them ahead of it.

Tests used:
Assay type in all cases: biochemical, Musa acuminata x Musa balbisiana
[1] = test system: T1, 'Prata' banana peel polyphenol oxidase (PPO); test: spectrophotometric initial rate, […] nm, non-linear Michaelis-Menten fit; details: crude extract; McIlvaine buffer pH 6.5, 30 °C; O2 co-substrate
T1 construct: native crude extract of freeze-dried peel (McIlvaine buffer pH 6.5, PVP, Triton X-100); not purified; o-diphenol oxidase activity

[2] = test system: T1, 'Prata' banana peel polyphenol oxidase (PPO); test: spectrophotometric, […] nm, proline-catechol adduct formation, non-linear Michaelis-Menten fit; details: crude extract; McIlvaine buffer pH 6.5, 30 °C; constant 50 mM L-proline as coupling agent; O2 co-substrate; read-out: apparent KM
[3] = test system: T1, 'Prata' banana peel polyphenol oxidase (PPO); test: spectrophotometric initial rate, […] nm, non-linear Michaelis-Menten fit; details: crude extract; McIlvaine buffer pH 6.5, 30 °C; O2 co-substrate; remark: listed apart in the source

Structure (SMILES): NCCc1ccc(O)c(O)c1 [Dopamine]
Km [1]: 0.94 ± 0.07 mM

Km [2]: 4.01 mM
Structure (SMILES): Cc1ccc(O)c(O)c1 [4-methylcatechol]

Km [3]: 7.54 ± 0.51 mM
Structure (SMILES): O=C(/C=C/c1ccc(O)c(O)c1)O[C@@H]1C[C@](O)(C(=O)O)C[C@@H](O)[C@H]1O [Chlorogenic acid]
